Drawing on PubChem BioAssay (NCI), this text covers GI50 and TGI for 9 compounds.

What all share (assay): NCI anticancer screen, dose series, 48 h
Assay [1] has as its system ACHN renal.
Assay [2] has as its system MDA-MB-435.
Assay [3] has as its system HOP-92 NSCLC.
For assay [4], the system named is NCI-H460 lung.
For assay [5], the system named is OVCAR-4 ovarian.
The subject of assay [6] is COLO 205 colon.
The subject of assay [7] is UACC-257 melanoma.
The test system of assay [8] is MCF7 breast.
The test system of assay [9] is NCI-H226 lung.
For assay [10], the system named is NCI/ADR-RES ovarian.

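Interpolation was linear, between the two tested concentrations surrounding the appropriate level; five concentrations were tested over 48 hours in 96-well plates. Here, GI50 denotes the concentration required for 50% inhibition of growth. TGI marks complete inhibition of growth.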

As to `c1ccc(-c2n(Cc3ccc4ccccc4n3)cc[n+]2Cc2ccc3ccccc3c2)cc1`, the GI50 in assay [1] is 3.35 µM; in [2], 0.799 µM; in assay [3], 0.175 µM; in [4], 1.79 µM; in [5], 0.366 µM; in [6] it was 0.752 µM. For the same compound, the GI50 was 0.557 µM in [7], 1.21 µM in [8], 1.3 µM in assay [9] and 19.5 µM in assay [10]. In addition, the TGI in assay [1] worked out at 11.4 µM; in assay [2], 2.5 µM; in assay [3] it was 1.46 µM; in assay [4], 5.8 µM; in assay [5], 6.13 µM; in assay [6], 2.26 µM. Besides, the TGI in assay [7] amounted to 3.03 µM; in assay [8], 3.43 µM; in [9], 7.33 µM; in [10], 66.8 µM.

On to `CC(=O)Nc1cc2ccc(=O)oc2cc1Cl`, for which the TGI in assay [1], in [2], in assay [3], in [4], in assay [5] and in [6] was more than 100 µM each time. For the same compound, the TGI in assay [7], in [8], in assay [9] and in assay [10] was more than 100 µM in each case.

Consider `O=C(Nc1nn2c(-c3cc(C(F)(F)F)cc(C(F)(F)F)c3)nnc2s1)C1CCCC1`, for which the GI50 in assay [1] was 1.04 µM; in [2] it was 0.424 µM; in [3], 0.197 µM; in assay [4], 0.473 µM; in assay [5], 0.748 µM; in assay [6] it was 1.49 µM. The GI50 in assay [7] is 0.419 µM; in assay [8], 0.512 µM; in assay [9], 1.23 µM; in [10] it was 0.641 µM. The TGI in [1] is more than 31.6 µM; in assay [2] it was more than 39.8 µM; in [3] it was 0.876 µM; in [4] it was more than 100 µM; in [5], more than 37.9 µM; in [6], 2.86 µM. In addition, the TGI was 3.49 µM in [7], more than 33.7 µM in [8], more than 100 µM in assay [9] and more than 28.5 µM in [10].

For the compound `NC(N)=NS(=O)(=O)c1ccc(N=Nc2c(O)c(C(=O)O)cc3ccccc23)cc1`, the TGI in assay [1], in assay [2], in [3], in assay [4], in assay [5] and in assay [6] was more than 100 µM throughout. Also, the TGI in [7], in [8], in [9] and in assay [10] was more than 100 µM throughout.

Turning to `NCCNCCNCCN`, the GI50 in assay [1], in assay [2], in assay [3], in assay [4], in [5] and in [6] was more than 100 µM throughout. Also, the GI50 in assay [7], in assay [8], in assay [9] and in assay [10] was more than 100 µM in each case. In addition, the TGI in assay [1], in [2], in assay [3], in assay [4], in assay [5] and in assay [6] was more than 100 µM in each case. Besides, the TGI in assay [7], in [8], in [9] and in assay [10] was more than 100 µM throughout.

For `COC(=O)/C=C/c1cc(OC(C)=O)c2c(c1)[C@@H](C(=O)OC)[C@H](c1ccc(OC(C)=O)c(OC(C)=O)c1)O2`, the GI50 is 0.0705 µM in assay [1]; 0.0166 µM in assay [2]; 0.769 µM in [3]; 0.299 µM in assay [4]; 0.34 µM in assay [5]; 3.57 µM in [6]. Besides, the GI50 in assay [7] is 1.45 µM; in assay [8], 0.0339 µM; in assay [9] it was 1.71 µM; in [10], 0.0423 µM. Further, the TGI turned out to be 52.5 µM in [1]; 0.0466 µM in [2]; 22.4 µM in assay [3]; 15 µM in assay [4]; 38.2 µM in [5]; 24.7 µM in [6]. Also, the TGI was 56.2 µM in [7], more than 70.7 µM in [8], 27.4 µM in assay [9] and 1.93 µM in [10].

For the compound `C=C(C)C(=O)O[C@@H]1C[C@@]2(C)O[C@@H]2C[C@H](O)/C(C)=C/[C@H]2OC(=O)C(=C)[C@@H]21`, the TGI in [1] is more than 100 µM; in [2] it was more than 100 µM; in assay [3], more than 100 µM; in [4] it was more than 100 µM; in assay [5], 78.9 µM; in assay [6], more than 100 µM. For the same compound, the TGI in [7], in assay [8], in [9] and in assay [10] was more than 100 µM each time.

For the compound `O=C1c2ccccc2C(=O)c2c(/C=C\N3CCCCC3)ccnc21`, the TGI came to 21.1 µM in assay [1]; 0.289 µM in assay [2]; 32.1 µM in [3]; 4.91 µM in [4]; 28.4 µM in assay [5]; 6.06 µM in assay [6]. Also, the TGI in [7] is 3.22 µM; in assay [8], 4.01 µM; in assay [9], 8.31 µM; in [10], more than 95.4 µM.

For the compound `CN(C)c1ccc(/C=N/NC(=S)Nc2ccccc2)cc1`, the TGI in assay [1], in [2], in assay [3], in assay [4], in assay [5] and in assay [6] was more than 100 µM throughout. The TGI in [7], in assay [8], in [9] and in assay [10] was more than 100 µM each time.
